Values quoted from earlier work in patent EP0374725A2, “Transdermal therapeutic system having norpseudoephedrine as the active compound” (LTS Lohmann Therapie-Systeme GmbH & Co. KG, priority 1988, dated 1990).

Settings: background statement, amphetamines as medium-strong bases

For `C[C@H](N)[C@@H](O)c1ccccc1` [D-Norpseudoephedrin], the pka-Wert is listed as 8,9.
